Reference: patent US20230117034A1, “PYRAZOLOTRIAZINES” (Bayer Aktiengesellschaft, priority 2019, published 2023)

Tests used:
[1] = biological target: T1, CYCLIN K (nuclear staining in CAL-120 cells) (Homo sapiens, UniProt O75909); test: CYCLIN K nuclear protein level: immunofluorescence high content analysis (CAL-120); format: cell-based; settings: 24 h, 50% reduction of nuclear CCNK staining intensity, median, read-out: CYCLIN K degradation IF, DC50-[mol/l] (median)
T1 construct: endogenous in cells; host or cells: CAL-120 human breast cancer cells (DSMZ ACC 459)
Procedure, shortened: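 Readout is automated confocal image analysis of nuclear cyclin K immunofluorescence (Hoechst nuclei) after PFA fixation. Cells were CAL-120, exposed to compound dose-response 24 h at 37 °C; values are DC50 for halving nuclear CCNK signal relative to DMSO and control wells.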

CDK12/CycK = CDK12/CycK (Homo sapiens, UniProt Q9NYV4); test: CDK12/CycK high ATP kinase assay (TR-FRET, 2 mM ATP); format: biochemical; settings: 2 mM ATP (high ATP); median; read-out: CDK12/CyclinK, 2 mM ATP (high ATP), IC50-[mol/l] (median)
Procedure, shortened: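 Read-out is TR-FRET (Eu-anti-rabbit IgG, anti-phospho-c-Myc Ser62 antibody, streptavidin-XL665) after EDTA stop. Reaction ran 60 min at 22 °C using 1 µM biotin-peptide and high ATP (2 mM) with roughly 0.75 nM recombinant CDK12/CycK, after 15 min compound pre-binding; normalised emission ratios yield IC50.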

Sequence of CDK12/CycK (Q9NYV4 with tags, fused parts or gaps): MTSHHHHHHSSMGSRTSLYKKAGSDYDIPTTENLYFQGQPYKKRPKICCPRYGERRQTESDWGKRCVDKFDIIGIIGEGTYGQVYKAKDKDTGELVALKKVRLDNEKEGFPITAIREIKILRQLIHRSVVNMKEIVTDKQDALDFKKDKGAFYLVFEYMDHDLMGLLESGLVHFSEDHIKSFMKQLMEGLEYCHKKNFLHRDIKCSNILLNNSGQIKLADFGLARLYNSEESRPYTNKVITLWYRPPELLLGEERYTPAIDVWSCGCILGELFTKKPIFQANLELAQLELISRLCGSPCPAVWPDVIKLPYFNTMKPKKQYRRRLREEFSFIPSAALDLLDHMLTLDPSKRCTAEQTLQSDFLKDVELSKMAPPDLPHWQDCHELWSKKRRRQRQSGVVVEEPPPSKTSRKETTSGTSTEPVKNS
Sequence of CDK12/CycK (O75909 1-300 partner limits assumed): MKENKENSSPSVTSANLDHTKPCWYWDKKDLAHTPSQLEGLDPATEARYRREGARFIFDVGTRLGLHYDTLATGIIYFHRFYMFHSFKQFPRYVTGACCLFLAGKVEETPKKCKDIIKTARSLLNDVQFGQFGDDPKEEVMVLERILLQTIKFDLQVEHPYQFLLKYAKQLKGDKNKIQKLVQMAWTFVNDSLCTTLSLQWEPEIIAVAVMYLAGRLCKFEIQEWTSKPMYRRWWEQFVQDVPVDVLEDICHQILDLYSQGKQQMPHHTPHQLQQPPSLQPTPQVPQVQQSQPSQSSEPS
T1 sequence (O75909 whole entry): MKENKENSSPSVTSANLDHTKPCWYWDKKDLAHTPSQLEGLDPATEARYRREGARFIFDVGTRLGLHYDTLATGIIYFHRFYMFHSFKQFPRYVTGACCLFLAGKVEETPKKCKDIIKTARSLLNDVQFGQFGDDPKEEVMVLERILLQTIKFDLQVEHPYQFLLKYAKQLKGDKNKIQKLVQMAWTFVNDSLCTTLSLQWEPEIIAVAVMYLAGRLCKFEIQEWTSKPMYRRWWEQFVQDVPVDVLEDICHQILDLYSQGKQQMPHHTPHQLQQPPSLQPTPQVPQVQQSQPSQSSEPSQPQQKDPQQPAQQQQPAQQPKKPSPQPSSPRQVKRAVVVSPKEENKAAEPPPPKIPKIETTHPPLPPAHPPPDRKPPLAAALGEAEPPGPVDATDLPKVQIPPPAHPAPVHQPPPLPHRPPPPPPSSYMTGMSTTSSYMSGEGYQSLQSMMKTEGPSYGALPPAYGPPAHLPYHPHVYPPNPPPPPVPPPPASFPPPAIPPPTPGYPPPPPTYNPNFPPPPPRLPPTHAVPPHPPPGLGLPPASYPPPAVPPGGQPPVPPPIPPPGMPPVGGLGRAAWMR
T1 sequence (Q9NYV4 whole entry partner): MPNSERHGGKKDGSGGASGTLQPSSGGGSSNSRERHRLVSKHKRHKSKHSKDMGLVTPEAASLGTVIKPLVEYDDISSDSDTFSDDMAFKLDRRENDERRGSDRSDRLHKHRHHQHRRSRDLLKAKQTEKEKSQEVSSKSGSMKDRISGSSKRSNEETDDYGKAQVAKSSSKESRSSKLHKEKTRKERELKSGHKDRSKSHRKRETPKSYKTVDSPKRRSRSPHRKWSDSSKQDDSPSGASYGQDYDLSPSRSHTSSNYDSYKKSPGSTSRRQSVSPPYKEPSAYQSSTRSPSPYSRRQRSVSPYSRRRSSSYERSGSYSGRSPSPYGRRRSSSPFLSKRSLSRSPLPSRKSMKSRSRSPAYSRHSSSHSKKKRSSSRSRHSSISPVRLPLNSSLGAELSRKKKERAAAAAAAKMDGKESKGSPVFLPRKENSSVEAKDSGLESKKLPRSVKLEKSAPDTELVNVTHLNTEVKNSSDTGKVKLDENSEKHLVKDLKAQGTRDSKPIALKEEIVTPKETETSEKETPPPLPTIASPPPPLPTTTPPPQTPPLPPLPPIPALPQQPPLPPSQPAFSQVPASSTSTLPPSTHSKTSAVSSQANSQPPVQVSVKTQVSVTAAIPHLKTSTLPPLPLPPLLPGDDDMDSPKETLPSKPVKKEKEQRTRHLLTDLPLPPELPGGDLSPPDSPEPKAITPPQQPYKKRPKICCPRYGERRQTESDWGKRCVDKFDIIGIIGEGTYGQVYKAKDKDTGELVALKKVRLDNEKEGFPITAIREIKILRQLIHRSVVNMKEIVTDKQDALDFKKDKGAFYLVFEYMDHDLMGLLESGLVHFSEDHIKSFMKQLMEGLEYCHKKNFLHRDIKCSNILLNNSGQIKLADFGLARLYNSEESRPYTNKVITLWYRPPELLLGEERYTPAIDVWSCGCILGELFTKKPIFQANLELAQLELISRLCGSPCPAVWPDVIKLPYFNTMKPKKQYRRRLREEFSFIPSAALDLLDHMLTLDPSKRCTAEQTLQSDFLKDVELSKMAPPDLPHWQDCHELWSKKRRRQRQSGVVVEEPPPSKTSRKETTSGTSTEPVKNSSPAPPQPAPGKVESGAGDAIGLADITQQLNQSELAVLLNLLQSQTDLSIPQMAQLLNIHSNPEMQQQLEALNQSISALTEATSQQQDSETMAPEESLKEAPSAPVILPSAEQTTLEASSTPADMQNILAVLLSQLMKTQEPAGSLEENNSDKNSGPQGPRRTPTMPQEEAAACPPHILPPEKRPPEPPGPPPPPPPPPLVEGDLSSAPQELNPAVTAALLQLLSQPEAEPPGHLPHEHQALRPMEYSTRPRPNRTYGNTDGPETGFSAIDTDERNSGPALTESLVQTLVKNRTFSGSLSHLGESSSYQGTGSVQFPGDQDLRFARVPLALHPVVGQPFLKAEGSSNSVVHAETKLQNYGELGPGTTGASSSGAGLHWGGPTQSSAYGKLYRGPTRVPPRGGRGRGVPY

Row | Structure (SMILES) | DC50 [1] | IC50 (CDK12/CycK)
1 | OC[C@@H]1CCCCN1c1nc(NCc2nc3ccccc3[nH]2)n2ncc(Br)c2n1 [Example 59, [(2S)-1-(4-{[(1H-benzimidazol-2-yl)methyl]amino}-8-bromopyrazolo[1,5-a][1,3,5]triazin-2-yl)piperidin-2-yl]methanol] | 2.85 nM | 547 nM
2 | CN(CC(C)(C)O)c1nc(NCc2nc3c(F)c(F)ccc3[nH]2)n2ncc(C(F)(F)F)c2n1 [Example 402, 1-{[4-{[(4,5-difluoro-1H-benzimidazol-2-yl)methyl]amino}-8-(trifluoromethyl)pyrazolo[1,5-a][1,3,5]triazin-2-yl](methyl)amino}-2-methylpropan-2-ol] | 1.78 nM | 224 nM
3 | Fc1ccc2[nH]c(CNc3nc(N4CCOCC4)nc4c(C(F)(F)F)cnn34)nc2c1F [Example 426, N-[(4,5-difluoro-1H-benzimidazol-2-yl)methyl]-2-(morpholin-4-yl)-8-(trifluoromethyl)pyrazolo [1,5-a][1,3,5]triazin-4-amine] | 0.511 nM | 23.9 nM
4 | OC[C@H]1CCCCN1c1nc(NCc2nc3ccccc3[nH]2)n2ncc(Br)c2n1 [Example 60, [(2R)-1-(4-{[(1H-benzimidazol-2-yl)methyl]amino}-8-bromopyrazolo[1,5-a][1,3,5]triazin-2-yl)piperidin-2-yl]methanol] | 3.05 nM | 1860 nM
5 | CCc1cnn2c(NCc3nc4ccccc4[nH]3)nc(N3CCN(C)CC3)nc12 [Example 434, N-[(1H-benzimidazol-2-yl)methyl]-8-ethyl-2-(4-methylpiperazin-1-yl)pyrazolo[1,5-a][1,3,5] triazin-4-amine] | 2.06 nM | > 17600 nM
6 | Cn1cc(-c2cnn3c(NCc4nc5c(F)c(F)ccc5[nH]4)nc(N4CCOCC4)nc23)cn1 [Example 418, N-[(4,5-difluoro-1H-benzimidazol-2-yl)methyl]-8-(1-methyl-1H-pyrazol-4-yl)-2-(morpholin-4-yl)pyrazolo[1,5-a][1,3,5]triazin-4-amine] | 2.4 nM | > 20000 nM
7 | Fc1ccc2[nH]c(CNc3nc(N4CCOCC4)nc4c(-c5ccnnc5)cnn34)nc2c1F [Example 417, N-[(4,5-difluoro-1H-benzimidazol-2-yl)methyl]-2-(morpholin-4-yl)-8-(pyridazin-4-yl)pyrazolo[1,5-a][1,3,5]triazin-4-amine] | 1.25 nM | > 7750 nM
8 | CC1(C)CN(c2nc(NCc3nc4ccccc4[nH]3)n3ncc(Br)c3n2)CCO1 [Example 58, N-[(1H-benzimidazol-2-yl)methyl]-8-bromo-2-(2,2-dimethylmorpholin-4-yl)pyrazolo[1,5-a][1,3,5]triazin-4-amine] | 1.66 nM | 6440 nM
9 | Fc1cccc2[nH]c(CNc3nc(N4CCN5CCC4CC5)nc4c(C(F)(F)F)cnn34)nc12 [Example 410, 2-(1,4-diazabicyclo[3.2.2]nonan-4-yl)-N-[(4-fluoro-1H-benzimidazol-2-yl)methyl]-8-(trifluoromethyl)pyrazolo[1,5-a][1,3,5]triazin-4-amine] | 0.453 nM | 1580 nM
10 | O=C(O)C(F)(F)F.c1ccc2[nH]c(CNc3nc(N4CCOCC4)nc4c(-c5cncs5)cnn34)nc2c1 [Example 441, trifluoroacetic acid-N-[(1H-benzimidazol-2-yl)methyl]-2-(morpholin-4-yl)-8-(1,3-thiazol-5-yl)pyrazolo[1,5-a][1,3,5]triazin-4-amine (1/1)] | 2.25 nM | 4180 nM
11 | CC(C)c1cnn2c(NCc3nnc(-c4ccccc4)[nH]3)nc(N(C)CC(C)(C)O)nc12 [Example 39, 2-methyl-1-{methyl[4-{[(5-phenyl-4H-1,2,4-triazol-3-yl)methyl]amino}-8-(propan-2-yl)pyrazolo[1,5-a][1,3,5]triazin-2-yl]amino}propan-2-ol] | 8.13 nM | 4670 nM

More lines, now with the values ahead:

Row | DC50 [1] | IC50 (CDK12/CycK) | Structure (SMILES)
12 | 15.9 nM | > 20000 nM | Brc1cnn2c(NCc3nc4ccccc4[nH]3)nc(OC3CCNCC3)nc12 [Example 411, N-[(1H-benzimidazol-2-yl)methyl]-8-bromo-2-[(piperidin-4-yl)oxy]pyrazolo[1,5-a][1,3,5]triazin-4-amine]
13 | 0.843 nM | 771 nM | N#Cc1cccc(-c2nnc(CNc3nc(N4CCOCC4)nc4c(Br)cnn34)[nH]2)c1 [Example 55, 3-[5-({[8-bromo-2-(morpholin-4-yl)pyrazolo[1,5-a][1,3,5]triazin-4-yl]amino}methyl)-4H-1,2,4-triazol-3-yl]benzonitrile]
14 | 9.25 nM | 2030 nM | Brc1cnn2c(NCc3nnc(-c4cccnc4)[nH]3)nc(N3CCOCC3)nc12 [Example 53, 8-bromo-2-(morpholin-4-yl)-N-{[5-(pyridin-3-yl)-4H-1,2,4-triazol-3-yl]methyl}pyrazolo[1,5-a][1,3,5]triazin-4-amine]
15 | 0.385 nM | 583 nM | Fc1ccc2[nH]c(CNc3nc(N4CCOCC4)nc4c(-c5cncs5)cnn34)nc2c1F.O=C(O)C(F)(F)F [Example 442, trifluoroacetic acid N-[(4,5-difluoro-1H-benzimidazol-2-yl)methyl]-2-(morpholin-4-yl)-8-(1,3-thiazol-5-yl)pyrazolo[1,5-a][1,3,5]triazin-4-amine]
16 | 2.22 nM | 3980 nM | Clc1cc2nc(CNc3nc(N4CCOCC4)nc4c(-c5cncs5)cnn34)[nH]c2cc1Cl [Example 443, N-[(5,6-dichloro-1H-benzimidazol-2-yl)methyl]-2-(morpholin-4-yl)-8-(1,3-thiazol-5-yl)pyrazolo[1,5-a][1,3,5]triazin-4-amine]
17 | 3.86 nM | > 20000 nM | CN1CCN(c2nc(NCc3nc4c(F)c(F)ccc4[nH]3)n3ncc(C4CC4(F)F)c3n2)CC1 (stereo not drawn) [Example 429, N-[(4,5-difluoro-1H-benzimidazol-2-yl)methyl]-8-(2,2-difluorocyclopropyl)-2-(4-methylpiperazin-1-yl)pyrazolo[1,5-a][1,3,5]triazin-4-amine]
18 | 0.441 nM | 2700 nM | CCc1cnn2c(NCc3nc4c(OC)cccc4[nH]3)nc(N3CCOCC3)nc12 [Example 433, 8-ethyl-N-[(4-methoxy-1H-benzimidazol-2-yl)methyl]-2-(morpholin-4-yl)pyrazolo[1,5-a][1,3,5]triazin-4-amine]
19 | 0.884 nM | 6400 nM | Cc1cnn2c(NCc3nc4c(F)c(F)ccc4[nH]3)nc(N(C)CC(C)(C)O)nc12 [Example 395, 1-[(4-{[(4,5-difluoro-1H-benzimidazol-2-yl)methyl]amino}-8-methylpyrazolo[1,5-a][1,3,5]triazin-2-yl)(methyl)amino]-2-methylpropan-2-ol]
20 | 0.545 nM | 2140 nM | Fc1ccc2[nH]c(CNc3nc(N4CCOCC4)nc4c(CC(F)F)cnn34)nc2c1F.O=C(O)C(F)(F)F [Example 425, trifluoroacetic acid N-[(4,5-difluoro-1H-benzimidazol-2-yl)methyl]-8-(2,2-difluoroethyl)-2-(morpholin-4-yl)pyrazolo[1,5-a][1,3,5]triazin-4-amine]
21 | 0.189 nM | 1040 nM | C[C@H]1COCCN1c1nc(NCc2nc3ccccc3[nH]2)n2ncc(Br)c2n1 [Example 57, N-[(1H-benzimidazol-2-yl)methyl]-8-bromo-2-[(3S)-3-methylmorpholin-4-yl]pyrazolo[1,5-a][1,3,5]triazin-4-amine]
22 | 3.59 nM | > 20000 nM | COc1ccccc1-c1nnc(CNc2nc(N3CCOCC3)nc3c(Br)cnn23)[nH]1 [Example 61, 8-bromo-N-{[5-(2-methoxyphenyl)-4H-1,2,4-triazol-3-yl]methyl}-2-(morpholin-4-yl)pyrazolo[1,5-a][1,3,5]triazin-4-amine]
23 | 2.83 nM | 1640 nM | FC(F)(F)c1cccc(-c2nnc(CNc3nc(N4CCOCC4)nc4c(Br)cnn34)[nH]2)c1 [Example 52, 8-bromo-2-(morpholin-4-yl)-N-({5-[3-(trifluoromethyl)phenyl]-4H-1,2,4-triazol-3-yl}methyl)pyrazolo[1,5-a][1,3,5]triazin-4-amine]
24 | 10.4 nM | 14600 nM | CC(C)(O)COc1nc(NCc2nc3ccccc3[nH]2)n2ncc(Br)c2n1 [Example 398, 1-[(4-{[(1H-benzimidazol-2-yl)methyl]amino}-8-bromopyrazolo[1,5-a][1,3,5]triazin-2-yl)oxy]-2-methylpropan-2-ol]
25 | 0.519 nM | 4370 nM | Cc1cnn2c(NCc3nc4c(F)c(F)ccc4[nH]3)nc(N3CCOCC3)nc12 [Example 392, N-[(4,5-difluoro-1H-benzimidazol-2-yl)methyl]-8-methyl-2-(morpholin-4-yl)pyrazolo[1,5-a][1,3,5]triazin-4-amine]
26 | 44.4 nM | 2200 nM | Clc1ccc(-c2nnc(CNc3nc(N4CCOCC4)nc4c(Br)cnn34)[nH]2)cc1 [Example 45, 8-bromo-N-{[5-(4-chlorophenyl)-4H-1,2,4-triazol-3-yl]methyl}-2-(morpholin-4-yl)pyrazolo[1,5-a][1,3,5]triazin-4-amine]
27 | 5.34 nM | 6120 nM | Brc1cnn2c(NCc3nnc(-c4ccccc4)[nH]3)nc(N3CCCCC3)nc12 [Example 49, 8-bromo-N-[(5-phenyl-4H-1,2,4-triazol-3-yl)methyl]-2-(piperidin-1-yl)pyrazolo[1,5-a][1,3,5]triazin-4-amine]
